Consider 13 compounds from US8084621B2, “3-Pyrrolo[b]cyclohexylene-2-dihydroindolinone derivatives and uses thereof” (Jiangsu Simcere Pharmaceutical R&D Co. Ltd., priority 2006, dated 2011).

What all share (assay type): cell-based
In experiment [1] the test system is Human Small Cell Lung Cancer Cell Line (NCI-H446). Put plainly: Tumor cell proliferation assay (MTT), NCI-H446. As to conditions: for inhibition at 10 µM: concentration of 10^−5 mol/L, preliminary screening, 72 hours, read-out: Inhibition rate % NCI-H446; for IC50: secondary screening, 48 hours. From the text: (§1) The assay used generally is the blue tetrazolium bromide (MTT) method. […] The amount of formazan can be detected by the microplate reader through the absorption value at 570 nm. The amount of formazan product generated is proportional to the number of living cells in the sample, so the OD value may reflect the number of living cells and the ability of a test drug to inhibit or kill cells. The MTT assay may be used in determining the ability of different compounds of the present invention to inhibit one or more cancer cells proliferation. Similar assays can be designed along the same lines for any cancer cell using techniques well known in the art.
(§2) The assay used generally is the blue tetrazolium bromide (MTT) method. […] Intracellular purple formazan salt crystals can be solved in DMSO and the absorption value at 570 nm is detected by the microplate reader, then the number of living cells can be detected indirectly. So MTT assay may be used to determine the ability of a compound of the present invention to inhibit cell proliferation. Similar assays can be designed along the same lines for any cancer cell using techniques well known in the art.
2.2.5 Human Small Cell Lung Cancer Cell Line (NCI-H446)
The cells of the 2.2.1, 2.2.2, 2.2.3, 2.2.4, 2.2.5 cultured with RPMI 1640 containing 12% calf serum in the condition of 37° C., 5% CO2.
(§3) 2.3.1 Cell seeding: Trypsinize the cell by 0.05% trypsin-EDTA and add RPMI 1640 medium (DMEM or 5A) containing 12% calf serum. Count the number, then dilute to 1.67×10^4/ml. Add 180 ul/well to the 96 well plate (3000 cells/well).
(§4) 2.3.2 Culture: cells are incubated for 24 hours at 37° C. under 5% CO2.
(§5) 2.3.3 Preliminary screening: The compounds are firstly diluted to 0.1 mol/L with DMSO, and then diluted to three concentrations of 10^−5 mol/L, 10^−6 mol/L and 10^−7 mol/L. Add 20 ul test compounds to the 96 well plate and incubate for 72 hours. Each group has three parallel wells and all experiments repeat three times. Each inhibition ratio is calculated, then an average value of three times is taken as the measured value. 2.3.4 Staining 2.3.4.1 Attached cell: add 20 ul/well MTT to the 96-well plates; incubate for 4 hours in the incubator. Pour out the culture medium in the well and add 100 ul/well DMSO. Shake the plate for 5 min. 2.3.4.2 Suspension cell: add 20 ul/well MTT to the 96-well plates; incubate for 4 hours in the incubator. Add 50 ul/well 20% SDS and incubate for overnight in the incubator. 2.3.5 Reading the plates: read the absorbance A570-A630 with the Infinite M200 microtiter plate reader. Calculate the inhibition ratio of the test compounds. 2.3.6 Secondary screening: the compounds whose inhibition ratio is greater than 50% at the concentrations of 10^−5 mol/L in the preliminary screening will be picked out for Secondary screening. Dilute these compounds to ten concentrations: 10^−5 mol/L, 0.5×10^−5 mol/L, 10^−6 mol/L, 0.8×10^−6 mol/L, 0.6×10^−6 mol/L, 0.4×10^−6 mol/L, 0.2×10^−6 mol/L, 10^−7 mol/L, 0.8×10^−7 mol/L and 0.4×10^−7 mol/L. Add 20 ul test compound solution to the 96 well plate and incubate for 48 hours. Each group has three parallel wells and all experiments repeat for three times. Read the plates and calculate the inhibition ratio according to the preliminary screening method. 2.3.7 Calculate the Inhibition Ratio of Cell Proliferation and the IC50
(§6) According to the inhibition ratio of cell proliferation at the different concentrations of the compound, inhibition ratio of 50% of the test compound is calculated through the logarithm of the concentration of the compound with the Logit [I] linear regression, and an average value of three times is taken as the measured value of a sample.

Experiment [2] has as its system Human Non-Small Cell Lung Cancer Cell Line (A549). As to the kind of experiment: Tumor cell proliferation assay (MTT), A549. As to conditions: for inhibition at 10 µM: concentration of 10^−5 mol/L, preliminary screening, 72 hours, read-out: Inhibition rate % A549; for IC50: secondary screening, 48 hours. Summed up:
A

Experiment [3] relates to Human Bladder Cancer Cell Line (T24). As to the kind of experiment: Tumor cell proliferation assay (MTT), T24. The following applies: for inhibition at 10 µM: concentration of 10^−5 mol/L, preliminary screening, 72 hours, read-out: Inhibition rate % T24; for IC50: secondary screening, 48 hours.
Text: as §1, §2
2.2.7 Human Bladder Cancer Cell Line (T24);
The cells of 2.2.6, 2.2.7 cultured in RPMI 1640 medium containing 12% fetal bovine serum in the condition of 37° C., 5% CO2.
as §3, §4, §5, §6

The subject of experiment [4] is Human Hepatocellular Carcinoma Cell Line (HEPG2). As to the kind of experiment: Tumor cell proliferation assay (MTT), HEPG2. The following applies: for inhibition at 10 µM: concentration of 10^−5 mol/L, preliminary screening, 72 hours, read-out: Inhibition rate % HEPG2; for IC50: secondary screening, 48 hours.
Text: as §1, §2
2.2.8 Human Hepatocellular Carcinoma Cell Line (HEPG2);
The cells of 2.2.8, 2.2.9 cultured in DMEM/High glucose medium containing 12% calf serum in the condition of 37° C., 5% CO2.
as §3, §4, §5, §6

Experiment [5] has as its system Human Colon Cancer Cell Line (HCT 116). Put plainly: Tumor cell proliferation assay (MTT), HCT116. The following applies: concentration of 10^−5 mol/L, preliminary screening, 72 hours, read-out: Inhibition rate % HCT116.
Text: as §1, §2
2.2.12 Human Colon Cancer Cell Line (HCT 116);
The cells of 2.2.11, 2.2.12, 2.2.13 were cultured in MC COYS 5-A medium containing 12% fetal bovine serum in the condition of 37° C., 5% CO2.
as §3, §4, §5, §6

Regarding `Cc1[nH]c2c(c1C(=O)NCCCN(C)C)CCC/C2=C1/C(=O)Nc2ccc(Cl)cc21` [I-7, N-(3-(dimethylamino)propyl)-2-methyl-7-[1,2-dihydro-5-chloro-2-oxo-3H-indol-(Z)-3-ylidene]-4,5,6,7-tetrahydro-1H-indole-3-carboxamide], in experiment [1], the inhibition at 10 µM amounted to 62.7% and the IC50 was determined as 5.99 µM.
Take `Cc1[nH]c2c(c1C(=O)NCC(O)CN1CCCC1)CCC/C2=C1/C(=O)Nc2ccc(F)cc21` (stereo not drawn) [I-71, N-(2-hydroxy-3-(pyrrolidin-1-yl)propyl)-2-methyl-7-[1,2-dihydro-5-fluoro-2-oxo-3H-indol-(Z)-3-ylidene]-4,5,6,7-tetrahydro-1H-indole-3-carboxamide]: in experiment [1], the inhibition at 10 µM amounted to 87.5% and half-maximal inhibition (IC50) required 2.52 µM. For the same compound, in experiment [2], the inhibition at 10 µM was found to be 71.7% and the IC50 is 2.35 µM.
In the case of `Cc1[nH]c2c(c1C(=O)NCC(O)CN1CCOCC1)CCC/C2=C1/C(=O)Nc2ccc(F)cc21` (stereo not drawn) [I-68, N-(2-hydroxy-3-morpholinopropyl)-2-methyl-7-[1,2-dihydro-5-fluoro-2-oxo-3H-indol-(Z)-3-ylidene]-4,5,6,7-tetrahydro-1H-indole-3-carboxamide], the inhibition at 10 µM in experiment [1] is 29.1%. Also, in experiment [2], the inhibition at 10 µM was determined as 61.1% and the midpoint of inhibition, the IC50, lay at 5.49 µM.
Turning to `CCN(CC)CCNC(=O)c1c(C)[nH]c2c1CCC/C2=C1/C(=O)Nc2ccc(C)cc21` [I-4, N-(2-(diethylamino)ethyl)-2-methyl-7-[1,2-dihydro-5-methyl-2-oxo-3H-indol-(Z)-3-ylidene]-4,5,6,7-tetrahydro-1H-indole-3-carboxamide], in experiment [1], the inhibition at 10 µM turned out to be 57.7% and the 50% inhibitory concentration (IC50) stood at 5.17 µM. In experiment [2], the inhibition at 10 µM came out at 67.5% and 1.01 µM corresponded to half-maximal inhibition (IC50).
For `CCN(CC)CCNC(=O)c1c(C)[nH]c2c1CCC/C2=C1/C(=O)Nc2ccc(Cl)cc21` [I-3, N-(2-(diethylamino)ethyl)-2-methyl-7-[1,2-dihydro-5-chloro-2-oxo-3H-indol-(Z)-3-ylidene]-4,5,6,7-tetrahydro-1H-indole-3-carboxamide], the inhibition at 10 µM is 98.1% in experiment [3], 98.2% in experiment [4], 69.9% in experiment [1] and 55.5% in experiment [2]. The half-maximal inhibitory concentration (IC50) stood at 1.83 µM in experiment [3], 3.14 µM in experiment [4], 6.47 µM in experiment [1] and 4.95 µM in experiment [2].
For the compound `CCN(CC)CCNC(=O)c1c(C)[nH]c2c1CCC/C2=C1/C(=O)Nc2ccc(F)cc21` [I-2, N-(2-(diethylamino)ethyl)-2-methyl-7-[1,2-dihydro-5-fluoro-2-oxo-3H-indol-(Z)-3-ylidene]-4,5,6,7-tetrahydro-1H-indole-3-carboxamide], the inhibition at 10 µM in experiment [3] was 81.4%; in experiment [5], 99.4%; in experiment [4], 64%; in experiment [2], 10.2%. Also, the 50% inhibitory concentration (IC50) in experiment [3] is 3.31 µM; in experiment [4], 7.27 µM.
Regarding `Cc1[nH]c2c(c1C(=O)NCC(O)CN1CCCCC1)CCC/C2=C1/C(=O)Nc2ccc(F)cc21` (stereo not drawn) [I-74, N-(2-hydroxy-3-(piperidin-1-yl)propyl)-2-methyl-7-[1,2-dihydro-5-fluoro-2-oxo-3H-indol-(Z)-3-ylidene]-4,5,6,7-tetrahydro-1H-indole-3-carboxamide], the inhibition at 10 µM in experiment [3] is 98.7%; in experiment [5] it was 99.9%; in experiment [4], 84.9%; in experiment [2], 1.27%. Besides, the IC50 came out at 2.64 µM in experiment [3] and 7.22 µM in experiment [4].
As to `CCN(CC)CCNC(=O)c1c(C)[nH]c2c1CCC/C2=C1/C(=O)Nc2ccccc21` [I-5, N-(2-(diethylamino)ethyl)-2-methyl-7-[1,2-dihydro-2-oxo-3H-indol-(Z)-3-ylidene]-4,5,6,7-tetrahydro-1H-indole-3-carboxamide], the inhibition at 10 µM was 74.5% in experiment [3], 99.9% in experiment [5], 64.6% in experiment [4] and 6.71% in experiment [2]. For the same compound, the figures for the half-inhibitory concentration (IC50) in experiment [3] and in experiment [4] were 3.56 µM and 7.73 µM, respectively.
On to `Cc1[nH]c2c(c1C(=O)NCC(O)CN1CCCC1)CCC/C2=C1/C(=O)Nc2ccccc21` (stereo not drawn) [I-70, N-(2-hydroxy-3-(pyrrolidin-1-yl)propyl)-2-methyl-7-[1,2-dihydro-2-oxo-3H-indol-(Z)-3-ylidene]-4,5,6,7-tetrahydro-1H-indole-3-carboxamide], for which the inhibition at 10 µM in experiment [1] stood at 87%; in experiment [2], 76.3%. The IC50 in experiment [1] stood at 2.64 µM; in experiment [2], 1.03 µM.
`CCN(CC)CC(O)CNC(=O)c1c(C)[nH]c2c1CCC/C2=C1/C(=O)Nc2ccccc21` (stereo not drawn) [I-63, N-(3-(diethylamino)-2-hydroxypropyl)-2-methyl-7-[1,2-dihydro-2-oxo-3H-indol-(Z)-3-ylidene]-4,5,6,7-tetrahydro-1H-indole-3-carboxamide]: the inhibition at 10 µM is 99% in experiment [3], 100% in experiment [4], 79% in experiment [1] and 61.8% in experiment [2]. For the same compound, the IC50 was found to be 3.04 µM in experiment [3], 3.15 µM in experiment [4], 2.27 µM in experiment [1] and 2.01 µM in experiment [2].
As to `Cc1[nH]c2c(c1C(=O)NCCO)CCC/C2=C1/C(=O)Nc2ccccc21` [I-8, N-(2-hydroxyethyl)-2-methyl-7-[1,2-dihydro-2-oxo-3H-indol-(Z)-3-ylidene]-4,5,6,7-tetrahydro-1H-indole-3-carboxamide], the inhibition at 10 µM is 64.6% in experiment [3], 79.1% in experiment [5], 53.8% in experiment [4] and 0.24% in experiment [2].
Consider `Cc1[nH]c2c(c1C(=O)NCCN(C)C)CCC/C2=C1/C(=O)Nc2ccc(F)cc21` [I-6, N-(2-(dimethylamino)ethyl)-2-methyl-7-[1,2-dihydro-5-fluoro-2-oxo-3H-indol-(Z)-3-ylidene]-4,5,6,7-tetrahydro-1H-indole-3-carboxamide], for which, in experiment [1], the inhibition at 10 µM was determined as 27.1%.
In the case of `Cc1[nH]c2c(c1C(=O)NCC(O)CN1CCN(C)CC1)CCC/C2=C1/C(=O)Nc2ccc(F)cc21` (stereo not drawn) [I-77, N-[2-hydroxy-3-(4-methylpiperazin-1-yl)propyl]-2-methyl-7-[1,2-dihydro-5-fluoro-2-oxo-3H-indol-(Z)-3-ylidene]-4,5,6,7-tetrahydro-1H-indole-3-carboxamide], in experiment [1], the inhibition at 10 µM came to 57.2% and 8.15 µM corresponded to half-maximal inhibition (IC50). For the same compound, in experiment [2], the inhibition at 10 µM turned out to be 50.8% and the IC50 was 7.12 µM.

As usually defined, the inhibition is the change of the read-out against control, counted positive when it falls. What is called IC50 is the midpoint of a concentration-inhibition curve.
